Test results reported in BindingDB's records for doi:10.1021/jm00112a042 (Zambeletti Research Laboratories, 1991).
“And” between values parts separate entries of the source, which are not always exact repeats. Equal entries are not always repeated.

Assay: Affinity for opioid receptor delta sites

Point of comparison: `O=C(Cc1ccc(Cl)c(Cl)c1)N1CCc2ccsc2C1CN1CCCC1` (stereo unspecified), Ki 362 nM. Against it:
- O=C(Cc1ccc(Cl)c(Cl)c1)N1CCc2sccc2C1CN1CCCC1 (stereo unspecified) — 2.4-fold lower, 153 nM
- O=C(Cc1ccc(Cl)c(Cl)c1)N1CCc2[nH]c3ccccc3c2C1CN1CCCC1 (stereo unspecified) — higher, > 1000 nM
- O=C(Cc1ccc(Cl)c(Cl)c1)N1CCc2sccc2C1CN1CCCCC1 (stereo unspecified) — higher, > 1000 nM
- O=C(Cc1ccc(C(F)(F)F)cc1)N1CCc2sccc2C1CN1CCCCC1 (stereo unspecified) — higher, > 1000 nM
- O=C(Cc1ccc(Cl)c(Cl)c1)N1CCCC[C@H]1CN1CCCC1 [2-(3,4-Dichloro-phenyl)-1-(2-pyrrolidin-1-ylmethyl-piperidin-1-yl)-ethanone] — 2.8-fold higher, 1000 nM

Assay: Binding affinity was measured on opioid receptor delta sites.

Point of comparison: `CN(C)CC1c2ccccc2CCN1C(=O)Cc1ccc(Cl)c(Cl)c1` (stereo unspecified), Ki 746 nM. Against it:
- O=C(Cc1ccc(C(F)(F)F)cc1)N1CCc2ccccc2C1CN1CCCCC1 (stereo unspecified) — higher, > 1000 nM
- O=C(Cc1ccc(Cl)c(Cl)c1)N1CCc2c([nH]c3ccccc23)C1CN1CCCC1 (stereo unspecified) — higher, > 1000 nM
- O=C(Cc1ccc(C(F)(F)F)cc1)N1CCCC[C@H]1CN1CCCC1 [1-(2-Pyrrolidin-1-ylmethyl-piperidin-1-yl)-2-(4-trifluoromethyl-phenyl)-ethanone] — within 1.5-fold, 1000 nM

In the case of `O=C(Cc1ccc(C(F)(F)F)cc1)N1CCc2ccccc2[C@H]1CN1CCCC1`, the Ki is reported as > 1000 nM and 149 nM.
